Publication PMC9501129 (Pharmaceutics, 2022)
Read-outs that look alike come from different tables or passages of the source.

Experiments:
[1] = cited from earlier work
pregnant rats [2] = conditions: cited from earlier work
pregnant rats [3] = conditions: gestational day 0 to 17, cited from earlier work
[4] = Amniotic fluid drug concentration in mouse pregnancy model (HPLC-MSMS); type: in vivo, C57BL/6J mice; conditions: pregnant mice; for Kp at 1 h / concentration at 1 h: female, C57BL/6J, mouse, oral; for Kp at 1 h: amniotic fluid / maternal plasma; for concentration at 1 h: amniotic fluid
Source text: All animal experiments were approved by the University Health Network Animal Use Committee (protocol #2575) and performed according to the policies and guidelines of the Canadian Council on Animal Care. C57BL/6J mice bred in-house (original breeders from Jackson Laboratory RRID:IMSR JAX:000664) were maintained under a 12-h light/dark cycle, with ad libitum access to food and water. Animals were acclimated to their surroundings for 1 week prior to experiment initiation. Males were isolated for 7 days prior to mating. Female mice (7–12 weeks of age) were mated with males at a ratio of 2:1. Presence of vaginal plug was denoted as gestational day 0.5 (GD0.5). Pregnancy was confirmed by weight gain of >1.5 g on GD9.5 and >3 g on GD13.5. […] The equivalent mouse mg/kg dose was calculated based on the human dose divided by an assumed average human weight of 60 kg. […] On GD15.5, mice underwent saphenous bleed 24 h after the GD14.5 dose administration (trough). Immediately after the saphenous bleed, mice were dosed with the appropriate drug regimen and sacrificed 1 h post-treatment (peak), at which time blood was collected by cardiac puncture and amniotic fluid was collected by dissecting the uterus, puncturing the amniotic sac, and draining the amniotic fluid into a sterile dish. Amniotic fluid was pooled for the entire litter. Samples from 2 dams per arm were analyzed for drug levels.
Briefly, 50 μL of plasma or amniotic fluid was spiked with internal standard (ritonavir-d6) followed by protein precipitation with acetonitrile and filtration. Filtrates were diluted 1:9 with ammonium acetate buffer (10 mM) and analyzed by the HPLC-MSMS system, consisting of a Shimadzu Nexera XR high-performance liquid chromatograph (Shimadzu, Columbia, MD, USA) coupled with a SCIEX API 4500 QqQ mass spectrometer (SCIEX, Concord, ON, Canada). Chromatographic separation by Mobile Phase A (10% methanol, 5% 50 mM ammonium acetate, 85% 0.25% acetic acid pH 3.6 ± 0.2) and Mobile Phase B (90% methanol, 5% 50 mM ammonium acetate, 5% 0.25% acetic acid pH 6.6 ± 0.2) was performed under linear gradient conditions (flow rate 0.7 mL/min) on a reverse-phase Zorbax XDB-C18 column (Agilent Technologies, Santa Clara, CA, USA) maintained at 40 °C. […] HPLC-MSMS data were acquired using Analyst (v 1.6.3, SCIEX, Concord, ON, Canada) and analyzed with MultiQuant software (v 3.0.3, SCIEX, Concord, ON, Canada). […] Positive controls spiked in-house and prepared by an external laboratory during a sample exchange program were included in all runs.

[5] = tested on: simian/human immunodeficiency virus (SHIV); conditions: long-acting CAB; cited from earlier work
[6] = ART-naïve, Switch study, ART-experienced, virologically suppressed, CAB/rilpivirin LA every 4 weeks, initial injection 600 mg IM
[7] = ART-naïve, Switch study, ART-experienced, virologically suppressed, CAB/rilpivirin LA every 4 weeks, oral 30 mg once daily
[8] = Healthy Participants (Females), 30 mg oral phase, 600 mg LA CAB every 12 weeks, 1st injection
[9] = Healthy Participants (Females), 30 mg oral phase, 600 mg LA CAB every 12 weeks, 2nd injection
[10] = Healthy Participants (Females), 30 mg oral phase, 600 mg LA CAB every 12 weeks, 3rd injection
[11] = Healthy Participants (Females), 30 mg oral phase, 600 mg LA CAB every 12 weeks, 4th injection
[12] = Healthy Participants (Females), 30 mg oral phase, 600 mg LA CAB every 12 weeks, 5th injection
[13] = Healthy Participants (Females), 30 mg oral phase, 800 mg LA CAB every 12 weeks, 1st injection
[14] = Healthy Participants (Females), 30 mg oral phase, 800 mg LA CAB every 12 weeks, 2nd injection
[15] = Healthy Participants (Females), 30 mg oral phase, 800 mg LA CAB every 12 weeks, 3rd injection
[16] = Healthy Participants (Males), 30 mg oral phase, 600 mg LA CAB every 12 weeks, 1st injection
[17] = Healthy Participants (Males), 30 mg oral phase, 600 mg LA CAB every 12 weeks, 2nd injection
[18] = Healthy Participants (Males), 30 mg oral phase, 600 mg LA CAB every 12 weeks, 3rd injection
[19] = Healthy Participants (Males), 30 mg oral phase, 600 mg LA CAB every 12 weeks, 4th injection
[20] = Healthy Participants (Males), 30 mg oral phase, 600 mg LA CAB every 12 weeks, 5th injection
[21] = Healthy Participants (Males), 30 mg oral phase, 800 mg LA CAB every 12 weeks, 1st injection, ref 28
[22] = Healthy Participants (Males), 30 mg oral phase, 800 mg LA CAB every 12 weeks, 1st injection, ref 29
[23] = Healthy Participants (Males), 30 mg oral phase, 800 mg LA CAB every 12 weeks, 2nd injection, ref 28
[24] = Healthy Participants (Males), 30 mg oral phase, 800 mg LA CAB every 12 weeks, 2nd injection, ref 29
[25] = Healthy Participants (Males), 30 mg oral phase, 800 mg LA CAB every 12 weeks, 3rd injection, ref 28
[26] = Healthy Participants (Males), 30 mg oral phase, 800 mg LA CAB every 12 weeks, 3rd injection, ref 29
[27] = Healthy Participants, oral lead-in followed by LA CAB IM or SC injection: 30 mg, with Rilpivirine LA IM monthly
[28] = Healthy Participants, oral lead-in followed by LA CAB injection: 200 mg IM, with Rilpivirine LA IM monthly
[29] = Healthy Participants, oral lead-in followed by LA CAB injection: 200 mg SC, with Rilpivirine LA IM monthly
[30] = Healthy Participants, oral lead-in followed by LA CAB injection: 400 mg IM, with Rilpivirine LA IM monthly
[31] = Healthy Participants, oral lead-in followed by LA CAB injection: 800 mg IM, with Rilpivirine LA IM monthly
[32] = Healthy Participants, repeat oral dose 5 mg
[33] = Healthy Participants, repeat oral dose 10 mg
[34] = Healthy Participants, repeat oral dose 25 mg
[35] = Healthy Participants, single oral dose 5 mg
[36] = Healthy Participants, single oral dose 10 mg
[37] = Healthy Participants, single oral dose 25 mg
[38] = Healthy Participants, single oral dose 50 mg
[39] = Participants with HIV, repeat oral dose 30 mg
[40] = Participants with HIV, single oral dose 5 mg
[41] = CAB 5 mg/kg (10×) oral gavage once daily GD11.5-GD15.5 with TDF 50 mg/kg + FTC 33.3 mg/kg, mean (SD), n=2

## C[C@H]1CO[C@@H]2Cn3cc(C(=O)NCc4ccc(F)cc4F)c(=O)c(O)c3C(=O)N12 [CAB, cabotegravir]
[1]; [6]
  Human Plasma Levels Cmax: 8000 ng/mL
  Human Plasma Levels Cmin: 1500 ng/mL
[1]; ART-naïve, Switch study, ART-experienced, virologically suppressed, CAB/rilpivirin LA every 4 weeks, monthly injection 400 mg IM
  Human Plasma Levels Cmin: 2800 ng/mL
[1]; [7]
  Human Plasma Levels Cmax: 8000 ng/mL
  Human Plasma Levels Cmin: 4600 ng/mL
[1]; [8]
  Human Plasma Levels Cmax: 1580 ng/mL
  Human Plasma Levels Cmin: 1330 ng/mL
[1]; [9]
  Human Plasma Levels Cmax: 2960 ng/mL
  Human Plasma Levels Cmin: 1820 ng/mL
[1]; [10]
  Human Plasma Levels Cmax: 3460 ng/mL
  Human Plasma Levels Cmin: 2040 ng/mL
[1]; [11]
  Human Plasma Levels Cmax: 3330 ng/mL
  Human Plasma Levels Cmin: 2060 ng/mL
[1]; [12]
  Human Plasma Levels Cmax: 3660 ng/mL
  Human Plasma Levels Cmin: 2030 ng/mL
[1]; [13]
  Human Plasma Levels Cmax: 1890 ng/mL
  Human Plasma Levels Cmin: 950 ng/mL
[1]; [14]
  Human Plasma Levels Cmax: 2290 ng/mL
  Human Plasma Levels Cmin: 1350 ng/mL
[1]; [15]
  Human Plasma Levels Cmax: 3010 ng/mL
  Human Plasma Levels Cmin: 1650 ng/mL
[1]; [16]
  Human Plasma Levels Cmax: 2510 ng/mL
  Human Plasma Levels Cmin: 1790 ng/mL
[1]; [17]
  Human Plasma Levels Cmax: 3900 ng/mL
  Human Plasma Levels Cmin: 1290 ng/mL
[1]; [18]
  Human Plasma Levels Cmax: 2960 ng/mL
  Human Plasma Levels Cmin: 1110 ng/mL
[1]; [19]
  Human Plasma Levels Cmax: 2960 ng/mL
  Human Plasma Levels Cmin: 1460 ng/mL
[1]; [20]
  Human Plasma Levels Cmax: 3820 ng/mL
  Human Plasma Levels Cmin: 1680 ng/mL
[1]; [21]
  Human Plasma Levels Cmax: 4260 ng/mL
  Human Plasma Levels Cmin: 302 ng/mL
[1]; [22]
  Human Plasma Levels Cmax: 2670 ng/mL
  Human Plasma Levels Cmin: 490 ng/mL
[1]; [23]
  Human Plasma Levels Cmax: 5220 ng/mL
  Human Plasma Levels Cmin: 331 ng/mL
[1]; [24]
  Human Plasma Levels Cmax: 2570 ng/mL
  Human Plasma Levels Cmin: 780 ng/mL
[1]; [25]
  Human Plasma Levels Cmax: 4910 ng/mL
  Human Plasma Levels Cmin: 387 ng/mL
[1]; [26]
  Human Plasma Levels Cmax: 3390 ng/mL
  Human Plasma Levels Cmin: 820 ng/mL
[1]; Healthy Participants, IM (gluteal) injection 100 mg IM
  Human Plasma Levels Cmax: 200 ng/mL
[1]; Healthy Participants, IM (gluteal) injection 200 mg IM
  Human Plasma Levels Cmax: 300 ng/mL
[1]; Healthy Participants, IM (gluteal) injection 400 mg (200 mg × 2)
  Human Plasma Levels Cmax: 1400 ng/mL
[1]; Healthy Participants, IM (gluteal) injection 400 mg IM
  Human Plasma Levels Cmax: 700 ng/mL
[1]; Healthy Participants, IM (gluteal) injection 800 mg IM (400 mg × 2)
  Human Plasma Levels Cmax: 3300 ng/mL
[1]; Healthy Participants, SC (abdominal) injection 100 mg
  Human Plasma Levels Cmax: 200 ng/mL
[1]; Healthy Participants, SC (abdominal) injection 200 mg
  Human Plasma Levels Cmax: 500 ng/mL
[1]; Healthy Participants, SC (abdominal) injection 400 mg (200 mg × 2)
  Human Plasma Levels Cmax: 900 ng/mL
[1]; [27]
  Human Plasma Levels Cmax: 8300 ng/mL
  Human Plasma Levels Cmin: 4900 ng/mL
[1]; [28]
  Human Plasma Levels Cmax: 2200 ng/mL
  Human Plasma Levels Cmin: 1610 ng/mL
[1]; [29]
  Human Plasma Levels Cmax: 2100 ng/mL
  Human Plasma Levels Cmin: 1660 ng/mL
[1]; [30]
  Human Plasma Levels Cmax: 4400 ng/mL
  Human Plasma Levels Cmin: 3270 ng/mL
[1]; [31]
  Human Plasma Levels Cmax: 3300 ng/mL
  Human Plasma Levels Cmin: 1100 ng/mL
[1]; [32]
  Human Plasma Levels Cmax: 2080 ng/mL
  Human Plasma Levels Cmin: 1060 ng/mL
[1]; [33]
  Human Plasma Levels Cmax: 4290 ng/mL
  Human Plasma Levels Cmin: 2390 ng/mL
[1]; [34]
  Human Plasma Levels Cmax: 9470 ng/mL
  Human Plasma Levels Cmin: 5400 ng/mL
[1]; [35]
  Human Plasma Levels Cmax: 1150 ng/mL
  Human Plasma Levels Cmin: 420 ng/mL
[1]; [36]
  Human Plasma Levels Cmax: 2150 ng/mL
  Human Plasma Levels Cmin: 830 ng/mL
[1]; [37]
  Human Plasma Levels Cmax: 4380 ng/mL
  Human Plasma Levels Cmin: 1930 ng/mL
[1]; [38]
  Human Plasma Levels Cmax: 8570 ng/mL
  Human Plasma Levels Cmin: 3820 ng/mL
[1]; Participants with HIV, CAB/rilpivirine LA injectable, repeat-dose every 4 week 400 mg
  Human Plasma Levels Cmin: 2740 ng/mL
[1]; Participants with HIV, CAB/rilpivirine LA injectable, repeat-dose every 8 week 600 mg
  Human Plasma Levels Cmin: 1670 ng/mL
[1]; Participants with HIV, repeat oral dose 5 mg
  Human Plasma Levels Cmax: 1020 ng/mL
[1]; [39]
  Human Plasma Levels Cmax: 6370 ng/mL
  Human Plasma Levels Cmin: 3280 ng/mL
[1]; [40]
  Human Plasma Levels Cmax: 520 ng/mL
  Human Plasma Levels Cmin: 230 ng/mL
[1]; Participants with HIV, single oral dose 30 mg (Ctau)
  Human Plasma Levels Cmin: 1250 ng/mL
[1]; Participants with HIV, single oral dose 30 mg
  Human Plasma Levels Cmax: 2840 ng/mL
Pregnant rats [2]; CAB orally 1000 mg/kg/day, gestational day 6 to lactation day 21
  Reproductive toxicity findings: delayed onset of parturition, increased number of stillbirths, and increased number of neonatal deaths at lactation day 4
Pregnant rats [2]; rats, 1000 mg/kg/day
  CAB exposure relative to the recommended human dose: 28 times
Pregnant rats [3]; CAB orally 0, 0.5, 5, or 1000 mg/kg/day
  Fetal viability and fetal malformations: no effects on fetal viability and no drug-related fetal malformations
Pregnant rats [3]; CAB orally 1000 mg/kg/day
  Fetal body weight: minor decrease in fetal body weight
[4]; 1× to 10× CAB, 1 h after dosing, read-out: Ratio of drug in the amniotic fluid to that in maternal plasma
  Kp at 1 h: 0.034 to 0.055
[4]; CAB 0.5 mg/kg (1×) oral gavage once daily GD11.5-GD15.5 with TDF 50 mg/kg + FTC 33.3 mg/kg, mean (SD), n=2, read-out: Amniotic: Maternal Plasma Ratio 1 h
  Kp at 1 h: 0.05
[4]; CAB 1.5 mg/kg (3×) oral gavage once daily GD11.5-GD15.5 with TDF 50 mg/kg + FTC 33.3 mg/kg, mean (SD), n=2, read-out: Amniotic: Maternal Plasma Ratio 1 h
  Kp at 1 h: 0.055
[4]; CAB 5 mg/kg (10×) oral gavage once daily GD11.5-GD15.5 with TDF 50 mg/kg + FTC 33.3 mg/kg, mean (SD), n=2, read-out: Amniotic: Maternal Plasma Ratio 1 h
  Kp at 1 h: 0.034
[4]; CAB 0.5 mg/kg (1×) oral gavage once daily GD11.5-GD15.5 with TDF 50 mg/kg + FTC 33.3 mg/kg, mean (SD), n=2
  concentration at 1 h: 44.9 ng/mL
[4]; CAB 1.5 mg/kg (3×) oral gavage once daily GD11.5-GD15.5 with TDF 50 mg/kg + FTC 33.3 mg/kg, mean (SD), n=2
  concentration at 1 h: 59.9 ng/mL
[4]; [41]
  concentration at 1 h: 112 ng/mL
  Amniotic Fluid 1 h: 112.4 (33.6) ng/mL
[5]
  Efficacy against intrarectal SHIV: protective efficacy
  Efficacy against repeated high-dose intravaginal SHIV: protective efficacy
